Source: patent US20140343118A1, “METHODS OF TREATMENT USING ARYLCYCLOPROPYLAMINE COMPOUNDS” (Duke University, priority 2013, published 2014)
Blank lines part the entries; values can stand above or below the compound they belong to.

How the values were obtained:
MCF7 cells [1] = test: Cell proliferation assay (total DNA content); assay type: cell-based; conditions: MCF7, 250 μM every other day for 10 days
Experimental: (§1) After 2 d, the cells were treated with fresh media containing the inhibitors at the concentrations indicated. Every 2 d, for a total of 6 or 10 d, respectively, the cells were treated similarly. […] Data are presented as the mean±SEM for triplicate wells in one representative experiment.

MDA-MB-231 cells [2] = test: Cell proliferation assay (total DNA content); assay type: cell-based; conditions: MDA-MB-231, 250 μM every other day for 10 days
Experimental: as §1

HCC1143 cells = conditions: HCC1143, 250 μM every other day for 10 days
Experimental: as §1

HCC1937 cells = conditions: HCC1937, 250 μM every other day for 10 days
Experimental: as §1

MCF7 cells [3] = test: Cell cycle analysis (BrdU/PI flow cytometry); assay type: cell-based; conditions: MCF7, 250 μM, 24 hours
Experimental: MCF7 cells were seeded at 400,000 cells per well in 6 well plates in DMEM/F12 (Invitrogen) containing 8% FBS, 1 mM sodium pyruvate and 0.1 mM non-essential amino acids. After 24 h, the cells were treated with fresh media containing the 250 μM inhibitor. After 48 h of treatment, the cells were pulsed for 2 h with BrdU (10 μg mL^−1). The cells were trypsinized and collected using cold IFA buffer (3 mL) (4% charcoal stripped FBS, 150 mM sodium chloride, 10 mM HEPES, pH 7.5). They were washed with PBS, resuspended in 1 mL of PBS and fixed with 70% ethanol. The cells were incubated for 30 min on ice and then stored at −20° C. The cells were washed with PBS containing 0.5% BSA. The pellet was denatured with 2 M hydrochloric acid containing 0.5% BSA. The residual acid was neutralized using 0.1M sodium borate, pH 8.5. The cell pellet was resuspended in dilute anti-BrdU-alexa fluor-488 antibody (Molecular Probes) (PBS+0.5% Tween 20+0.5% BSA+5% antibody). After washing excess away, the cell pellets were resuspended in PI+RNase A (10 μg mL^−1 propidium iodide and 10 μg mL^−1 RNase A in PBS). The cells were vortexed and analyzed using flow cytometry (Accuri C6).

[4] = test system: histone H3K4-Me2 and H3K9-Me2 in MCF7 cells; test: Western blot of global histone dimethylation; assay type: cell-based; conditions: inhibitors 250 μM for 24 h
Experimental: (§2) MCF7 cells or MDA-MB 231 cells were seeded in six-well plates. Cells were treated after 48 h with inhibitor for 24 h. Whole-cell extracts were isolated using RIPA buffer [50 mM Tris (pH 8.0), 200 mM NaCl, 1.5 mM MgCl2, 1% Nonidet P-40 (NP40), 1 mM EGTA, 10% glycerol, 50 mM NaF, 2 mM Na3VO4 and 1× protease inhibitor mixture]. Crude histones were extracted from the lysate pellet by resuspending in water and precipitating with 25% TCA. The pellets were washed with acetone and then resuspended. Concentration of whole-cell lysate or resuspended histones was determined using Bio-Rad Bradford reagent using BSA for standard curve. For each sample, proteins were resolved by SDS-PAGE and transferred to a PVDF membrane (Biorad).
(§3) H3K4-Me2 was detected using polyclonal rabbit antibody (Millipore 07-030). H3K9-Me2 was detected using a monoclonal mouse antibody (Abcam ab1220). Total H3 was detected using a polyclonal rabbit antibody (Abcam ab1791). LSD1 was detected using a monoclonal rabbit antibody (Millipore 05-939) or polyclonal rabbit antibody (Abcam ab17721). ERα (D12) was detected using monoclonal mouse antibody (Santa Cruz sc-8005). GAPDH was detected using polyclonal goat antibody (Santa Cruz sc-20357). Secondary antibodies were purchased from Bio-Rad.

[5] = test system: histone H3K4-Me2 and H3K9-Me2 in MDA-MB-231 cells; test: Western blot of global histone dimethylation; assay type: cell-based; conditions: inhibitors 250 μM for 24 h
Experimental: as §2, §3

MCF7 cells [6] = conditions: MCF7, 24 h, up to 500 μM
MDA-MB-231 cells [7] = conditions: MDA-MB-231, 24 h, up to 500 μM
recombinant LSD1 = biological target: T1, recombinant LSD1 (Homo sapiens, UniProt O60341); test: LSD1 horseradish peroxidase coupled enzyme assay, time-dependent inactivation kinetics; assay type: biochemical
T1 construct: made in house
Experimental: For example, compounds may be assayed for their ability to inhibit the enzymatic activity of recombinant LSD1 utilizing a horseradish peroxidase coupled assay for the detection of hydrogen peroxide formed in the demethylase catalytic cycle.
LSD1 overexpression, purification and horseradish peroxidase coupled enzyme assay were performed as previously described.
Inhibitors were prepared as 100 mM stocks in dimethylsulfoxide (DMSO) before dilution into assay reagents at appropriate concentrations. Progress curves for time-dependent enzyme inactivation were fit to Equation 1
Product=(vi/kobs)*(1−exp^−kobs*t) (1)
to obtain values of kobs as a function of inhibitor concentration, which were then fit to Equation 2 to obtain values of kinact and K1.

MAO B = biological target: T2, MAO B (Homo sapiens, UniProt P27338); test: Inhibition kinetics of MAO B
T2 sequence (P27338 1-520): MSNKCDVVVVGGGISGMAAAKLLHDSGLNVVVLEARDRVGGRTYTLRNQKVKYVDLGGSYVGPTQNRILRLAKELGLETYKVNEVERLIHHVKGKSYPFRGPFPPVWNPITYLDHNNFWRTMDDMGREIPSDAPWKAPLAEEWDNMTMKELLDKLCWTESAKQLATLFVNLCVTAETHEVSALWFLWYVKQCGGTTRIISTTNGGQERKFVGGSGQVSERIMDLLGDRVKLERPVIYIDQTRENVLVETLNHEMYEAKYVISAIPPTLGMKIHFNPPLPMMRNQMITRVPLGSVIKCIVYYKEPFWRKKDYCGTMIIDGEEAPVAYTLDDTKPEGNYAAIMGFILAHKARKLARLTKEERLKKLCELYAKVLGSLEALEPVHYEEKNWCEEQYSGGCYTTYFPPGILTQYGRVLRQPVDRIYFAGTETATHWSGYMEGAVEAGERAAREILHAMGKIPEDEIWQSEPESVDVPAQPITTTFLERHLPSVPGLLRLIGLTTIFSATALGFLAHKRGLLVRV

- kinact/KI (recombinant LSD1; LSD1 inactivation): < 0.6 M⁻¹ s⁻¹
SMILES: C#CCNCc1ccccc1 [Compound 2a]

- kinact/KI (recombinant LSD1; LSD1 inactivation): < 0.8 M⁻¹ s⁻¹
SMILES: C#CCNCc1ccc(OC(C)C)cc1 [Compound 2b]

- kinact/KI (recombinant LSD1; LSD1 inactivation): < 0.3 M⁻¹ s⁻¹
SMILES: C#CCNCc1ccc(Oc2ccccc2)cc1 [Compound 2c]

The remaining lines, values behind:

SMILES: N[C@@H]1C[C@H]1c1ccccc1 (relative stereo) [Compound 2-PCPA, trans-2-Phenylcyclopropylamine]
- cell proliferation (MCF7 cells [1]): significantly decreased cell proliferation
- cell proliferation (MDA-MB-231 cells [2]): significantly decreased cell proliferation
- cell proliferation (HCC1143 cells): significantly decreased cell proliferation
- cell proliferation (HCC1937 cells): significantly decreased cell proliferation
- cell cycle arrest (accumulation in G1 and G2/M, decrease in S phase) (MCF7 cells [3]): growth arrested
- level of global histone H3K4-Me2 [4]: increased
- level of global histone H3K9-Me2 [4]: significant changes were not observed
- level of global histone H3K4-Me2 [5]: robust increases
- level of global histone H3K9-Me2 [5]: robust increases
- induction of apoptosis (MCF7 cells [6]): did not induce apoptosis
- induction of apoptosis (MDA-MB-231 cells [7]): did not induce apoptosis

SMILES: CCOc1ccc(C2CC2N)cc1 (stereo not shown) [Compound 1b]
- kinact (recombinant LSD1; LSD1 inactivation): 0.02 ± 0.002 s⁻¹

SMILES: NC1CC1c1ccc(Oc2ccccc2)cc1 (stereo not shown) [Compound 1d]
- kinact (MAO B): 0.032 ± 0.002 s⁻¹

SMILES: NC1CC1c1cccc(OCc2ccccc2)c1 (stereo not shown) [Compound 1e]
- kinact (recombinant LSD1; LSD1 inactivation): 0.025 ± 0.005 s⁻¹

SMILES: CC(C)(C)c1ccc(Sc2ccc(C3CC3N)cc2)cc1 (stereo not shown) [Compound 1f]
- Ki (recombinant LSD1; LSD1 inactivation): 540 ± 160 µM
- kinact (recombinant LSD1; LSD1 inactivation): 0.022 ± 0.003 s⁻¹

SMILES: C#CCN(C)Cc1ccccc1 [pargyline]
- concentration needed to inhibit LSD1 in vitro (recombinant LSD1): greater than 5 mM
- kinact/KI (recombinant LSD1; LSD1 inactivation): < 0.2 M⁻¹ s⁻¹
- enzymatic activity remaining (recombinant LSD1; concentrations as high as 10 mM, prolonged exposure): greater than 70%
